From US12162888B2, “Carboxamides as ubiquitin-specific protease inhibitors” (Valo Early Discovery, Inc., priority 2018, dated 2024)

These compounds were tested against T1, USP28 (His-tagged USP28-FL-mammalian) (Homo sapiens, UniProt Q96RU2) (assay: Ubiquitin-Rhodamine 110 Assay for USP28 Activity, Example A-1(a)). Details: Ubiquitin-Rhodamine 110 biochemical assay, read-out: USP28 A-1(a) IC50 range.
T1 construct: Expression of USP28 (1-1077)-TEV-6*His (pTT5 vector) was carried out in Expi293f cells; made in house; host or cells: Expi293F cells (pTT5 vector)
T1 sequence (Q96RU2 1-1077): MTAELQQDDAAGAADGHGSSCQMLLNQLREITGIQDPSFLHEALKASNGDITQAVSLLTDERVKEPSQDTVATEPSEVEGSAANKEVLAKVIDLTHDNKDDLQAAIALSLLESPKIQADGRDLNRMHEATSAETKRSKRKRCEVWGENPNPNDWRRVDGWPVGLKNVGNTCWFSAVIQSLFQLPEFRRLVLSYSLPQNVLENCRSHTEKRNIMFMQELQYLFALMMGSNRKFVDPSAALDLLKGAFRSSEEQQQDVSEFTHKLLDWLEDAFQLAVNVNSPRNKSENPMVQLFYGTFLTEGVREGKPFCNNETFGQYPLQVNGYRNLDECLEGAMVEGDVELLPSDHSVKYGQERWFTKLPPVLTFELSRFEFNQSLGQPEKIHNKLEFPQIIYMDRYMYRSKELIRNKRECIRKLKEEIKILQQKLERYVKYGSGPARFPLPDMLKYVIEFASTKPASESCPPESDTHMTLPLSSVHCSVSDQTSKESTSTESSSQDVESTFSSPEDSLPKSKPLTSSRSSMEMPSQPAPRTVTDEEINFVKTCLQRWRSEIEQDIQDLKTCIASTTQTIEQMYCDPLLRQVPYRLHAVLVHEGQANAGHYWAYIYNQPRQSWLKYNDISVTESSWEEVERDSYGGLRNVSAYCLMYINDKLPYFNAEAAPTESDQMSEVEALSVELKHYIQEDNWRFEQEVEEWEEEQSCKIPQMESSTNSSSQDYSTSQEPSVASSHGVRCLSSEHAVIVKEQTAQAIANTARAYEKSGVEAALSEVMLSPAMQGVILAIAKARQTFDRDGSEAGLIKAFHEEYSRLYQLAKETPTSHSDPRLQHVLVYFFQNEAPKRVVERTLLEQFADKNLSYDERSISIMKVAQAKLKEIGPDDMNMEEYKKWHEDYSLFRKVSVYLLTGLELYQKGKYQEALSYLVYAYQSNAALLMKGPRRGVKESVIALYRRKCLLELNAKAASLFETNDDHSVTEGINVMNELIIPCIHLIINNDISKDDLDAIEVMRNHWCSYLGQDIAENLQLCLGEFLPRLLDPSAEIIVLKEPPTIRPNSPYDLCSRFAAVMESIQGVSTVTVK
Assay type: biochemical
Experimental: Example A-1(a): Biochemical Assay: Ubiquitin-Rhodamine 110 Assay for USP28 Activity
The assay was performed in a final volume of 9 μL in assay buffer containing 20 mM Tris-HCl (pH 8.0, (1M Tris-HCl, pH 8.0 solution; Corning 46-031-CM)), 3 mM BME (2-Mercaptoethanol; Sigma 63689-25ML-F), 0.03% BGG (0.22 μM filtered, Sigma, G7516-25G), and 0.01% Triton X-100 (Sigma, T9284-10L). Nanoliter quantities of 10-point, 3-fold serial dilution in DMSO was pre-dispensed into 1536 assay plates (Corning, #3724BC) for a final test concentration of 25 μM to 1.3 nM, top to lowest dose, respectively. Enzyme USP28, construct His-tagged USP28-FL-mammalian, (protein expression and purification procedure described below). Concentration and incubation times were optimized for the maximal signal-to-background while maintaining initial velocity conditions at a fixed substrate concentration. The final concentration of the enzyme in the assay was […]. Final substrate (Ub-Rh110; Ubiquitin-Rhodamine 110, UbiQ-126) concentration was 25 nM with [Ub-Rh110]<<Km. 3 μL of 2× enzyme was added to assay plates (pre-stamped with compound) preincubated with […] for 30 minutes and then 3 μL of 2× Ub-Rh110 was added to assay plates. Plates were incubated for 45 minutes at room temperature before addition of 3 μL of stop solution (final concentration of 10 mM citric acid (Sigma, 251275-500G)). Fluorescence was read on the Envision (Excitation at 485 nm and Emission at 535 nm; Perkin Elmer) or on the PheraSTAR (Excitation at 485 nm and Emission at 535 nm; BMG Labtech).
Procedure for the Protein expression and purification for construct His-tagged USP28-FL-mammalian
Expression of USP28 (1-1077)-TEV-6*His (pTT5 vector) was carried out in Expi293f cells (sequence derived from uniprot ID: Q96RU2-1). Cells were re-suspended in lysis buffer B 50 mM Bicine, pH 8.0, 20 mM NaCl, 5% glycerol, 0.1% CHAPS, 5 mM β-ME, 1 mM PMSF, 1 ug/ml Leupeptin, 1 ug/ml Pepstatin) and lysed by sonication. Insoluble material was removed by centrifugation and the supernatant was loaded onto a Ni-NTA column (GE Healthcare) equilibrated with Ni Buffer A (50 mM Bicine, pH 8.0, 20 mM NaCl, 5% glycerol, 0.1% CHAPS, 5 mM R-ME.) and washed with Ni Buffer A+20 mM imidazole until A280 reached baseline. The protein was eluted with Ni Buffer B (50 mM Bicine, pH 8.0, 20 mM NaCl, 5% glycerol, 0.1% CHAPS, 5 mM β-ME, 300 mM imidazole.). The protein was further purified using a Superdex™ 200 10/300 GL column (GE Healthcare) equilibrated with 50 mM Bicine, pH 8.0, 20 mM NaCl, 5% glycerol, 0.1% CHAPS, 5 mM β-ME. The protein was concentrated to 2.5 mg ml-1, flash-frozen in liquid N2 and stored at −80° C.
For assay formats Example A-1(a), A-1(b), and A-2, data were reported as percent inhibition compared with control wells based on the following equation: % inh=1−((FLU−AveLow)/(AveHigh−AveLow)) where FLU=measured Fluorescence, AveLow=average Fluorescence of no enzyme control (n=16), and AveHighh=average Fluorescence of DMSO control (n=16). IC50 values were determined by curve fitting of the standard 4 parameter logistic fitting algorithm included in the Activity Base software package: IDBS XE Designer Model 205. Data is fitted using the Levenburg Marquardt algorithm.

| Structure (SMILES) | IC50 |
| --- | --- |
| CO[C@@H]1CN(c2ccc3c(n2)CC[C@H](NC(=O)c2sc4nc(C)cnc4c2N)C3)C[C@@H]1N [Example 491, 7-amino-N-[(6S)-2-[(3S,4R)-3-amino-4-methoxypyrrolidin-1-yl]-5,6,7,8-tetrahydroquinolin-6-yl]-3-methylthieno[2,3-b]pyrazine-6-carboxamide] | 50 to 200 nM |
| CO[C@H]1CN(c2ccc3c(n2)CC[C@H](NC(=O)c2sc4nc(C)cnc4c2N)C3)C[C@H]1N [Example 492, 7-amino-N-[(6S)-2-[(3R,4S)-3-amino-4-methoxypyrrolidin-1-yl]-5,6,7,8-tetrahydroquinolin-6-yl]-3-methylthieno[2,3-b]pyrazine-6-carboxamide] | 50 to 200 nM |
| CO[C@@H]1CCCN(c2ccc3c(n2)CC[C@H](NC(=O)c2sc4nc(C)ccc4c2N)C3)C[C@H]1N [Example 493, 3-amino-N-[(6S)-2-[(3R,4R)-3-amino-4-methoxyazepan-1-yl]-5,6,7,8-tetrahydroquinolin-6-yl]-6-methylthieno[2,3-b]pyridine-2-carboxamide] | 1 to 50 nM |
| CO[C@H]1CCCN(c2ccc3c(n2)CC[C@H](NC(=O)c2sc4nc(C)ccc4c2N)C3)C[C@@H]1N [Example 494, 3-amino-N-[(6S)-2-[(3S,4S)-3-amino-4-methoxyazepan-1-yl]-5,6,7,8-tetrahydroquinolin-6-yl]-6-methylthieno[2,3-b]pyridine-2-carboxamide] | 1 to 50 nM |
| CO[C@@H]1CCCN(c2ccc3c(n2)CC[C@H](NC(=O)c2sc4nc(C)ccc4c2N)C3)C[C@@H]1N [Example 495, 3-amino-N-[(6S)-2-[(3S,4R)-3-amino-4-methoxyazepan-1-yl]-5,6,7,8-tetrahydroquinolin-6-yl]-6-methylthieno[2,3-b]pyridine-2-carboxamide] | 50 to 200 nM |
| CN[C@H]1CN(c2ccc3c(n2)CC[C@H](NC(=O)c2sc4nc(C)cnc4c2N)C3)C[C@H]1OC [Example 496, 7-amino-N-[(6S)-2-[(3R,4S)-3-methoxy-4-(methylamino)pyrrolidin-1-yl]-5,6,7,8-tetrahydroquinolin-6-yl]-3-methylthieno[2,3-b]pyrazine-6-carboxamide] | 200 to 2000 nM |
| CN[C@@H]1CN(c2ccc3c(n2)CC[C@H](NC(=O)c2sc4nc(C)cnc4c2N)C3)C[C@@H]1OC [Example 497, 7-amino-N-[(6S)-2-[(3S,4R)-3-methoxy-4-(methylamino)pyrrolidin-1-yl]-5,6,7,8-tetrahydroquinolin-6-yl]-3-methylthieno[2,3-b]pyrazine-6-carboxamide] | 200 to 2000 nM |
| Cc1cnc2c(N)c(C(=O)N[C@H]3CCc4nc(N5C[C@H](N)C6(C5)OCCO6)ccc4C3)sc2n1 [Example 498, 7-amino-N-[(6S)-2-[(9S)-9-amino-1,4-dioxa-7-azaspiro[4.4]nonan-7-yl]-5,6,7,8-tetrahydroquinolin-6-yl]-3-methylthieno[2,3-b]pyrazine-6-carboxamide] | 200 to 2000 nM |
| Cc1cnc2c(N)c(C(=O)N[C@H]3CCc4nc(N5C[C@@H](N)C6(C5)OCCO6)ccc4C3)sc2n1 [Example 499, 7-amino-N-[(6S)-2-[(9R)-9-amino-1,4-dioxa-7-azaspiro[4.4]nonan-7-yl]-5,6,7,8-tetrahydroquinolin-6-yl]-3-methylthieno[2,3-b]pyrazine-6-carboxamide] | 200 to 2000 nM |
| COC[C@@H]1CN(c2ccc3c(n2)CC[C@H](NC(=O)c2sc4cnccc4c2N)C3)C[C@@H]1N [Example 500, 3-amino-N-[(6S)-2-[(3R,4R)-3-amino-4-(methoxymethyl)pyrrolidin-1-yl]-5,6,7,8-tetrahydroquinolin-6-yl]thieno[2,3-c]pyridine-2-carboxamide] | > 2000 nM |
| CO[C@H]1CCCN(c2ccc3c(n2)CC[C@H](NC(=O)c2sc4nc(C)ccc4c2N)C3)C[C@H]1N [Example 501, 3-amino-N-[(6S)-2-[(3R,4S)-3-amino-4-methoxyazepan-1-yl]-5,6,7,8-tetrahydroquinolin-6-yl]-6-methylthieno[2,3-b]pyridine-2-carboxamide] | 200 to 2000 nM |
| CN[C@H]1CN(c2ccc3c(n2)CC[C@H](NC(=O)c2sc4nc(C)ccc4c2N)C3)C[C@]12CCCCO2 [Example 502, 3-amino-6-methyl-N-[(6S)-2-[(4S,5R)-4-(methylamino)-6-oxa-2-azaspiro[4.5]decan-2-yl]-5,6,7,8-tetrahydroquinolin-6-yl]thieno[2,3-b]pyridine-2-carboxamide] | 50 to 200 nM |
| CN[C@@H]1CN(c2ccc3c(n2)CC[C@H](NC(=O)c2sc4nc(C)ccc4c2N)C3)C[C@@]12CCCCO2 [Example 503, 3-amino-6-methyl-N-[(6S)-2-[(4R,5S)-4-(methylamino)-6-oxa-2-azaspiro[4.5]decan-2-yl]-5,6,7,8-tetrahydroquinolin-6-yl]thieno[2,3-b]pyridine-2-carboxamide] | 50 to 200 nM |
| CO[C@H]1CN(c2ccc3c(n2)CC[C@H](NC(=O)c2sc4cnccc4c2N)C3)C[C@@H]1N [Example 504, 3-amino-N-[(6S)-2-[(3S,4S)-3-amino-4-methoxypyrrolidin-1-yl]-5,6,7,8-tetrahydroquinolin-6-yl]thieno[2,3-c]pyridine-2-carboxamide] | > 2000 nM |
| Cc1ccc2c(N)c(C(=O)N[C@H]3CCc4nc(N5CC[C@]6(CCCN6)C5)ccc4C3)sc2n1 [Example 505, 3-amino-N-[(6S)-2-[(5R)-1,7-diazaspiro[4.4]nonan-7-yl]-5,6,7,8-tetrahydroquinolin-6-yl]-6-methylthieno[2,3-b]pyridine-2-carboxamide] | 50 to 200 nM |
| Cc1ccc2c(N)c(C(=O)N[C@H]3CCc4nc(N5C[C@H](N)[C@@]6(CCCCO6)C5)ccc4C3)sc2n1 [Example 508, 3-amino-N-[(6S)-2-[(4S,5R)-4-amino-6-oxa-2-azaspiro[4.5]decan-2-yl]-5,6,7,8-tetrahydroquinolin-6-yl]-6-methylthieno[2,3-b]pyridine-2-carboxamide] | 50 to 200 nM |
